Assay results from patent US10487093B2, “Heterocyclic compounds, in particular 2-oxo-4,4,5,5,6,6,7,7-octahydrobenzoxazole derivatives, and their use as antibacterial compounds” (priority 2016, dated 2019).
Values after ≈ are worked out from the molar mass of the structure shown.

How the values were obtained:
[1] = test system: Streptococcus pneumoniae ATCC 49619; test: MIC, broth microdilution (CLSI) versus planktonic bacteria; assay type: cell-based; settings: ATCC49619; Streptococcus pneumoniae ATCC 49619; 16-20 h; mode of three independent experiments; read-out: MIC, Sp ATCC 49619
[2] = test system: human hepatic cell line (HepG2 ATCC HB-8065); test: Human cell viability assay (CellTiter-Glo); settings: Homo sapiens, HepG2, 24 h, read-out: IC50 (μg/mL) HepG2
[3] = test system: Enterobacter cloacae NCTC 13406; test: MIC, broth microdilution (CLSI) versus planktonic bacteria; assay type: cell-based; settings: NCTC13406; Enterobacter cloacae NCTC 13406; 16-20 h; mode of three independent experiments; read-out: MIC, Ecl NCTC 13406
[4] = test system: Pseudomonas aeruginosa ATCC 27853; test: as above; assay type: cell-based; settings: ATCC27853; Pseudomonas aeruginosa ATCC 27853; 16-20 h; mode of three independent experiments; read-out: MIC, Pa ATCC 27853
[5] = test system: Mycobacterium smegmatis ATCC 19420; test: as above; assay type: cell-based; settings: Mycolicibacterium smegmatis, ATCC19420, 16-20 h, mode of three independent experiments, read-out: MIC, Ms ATCC 19420
[6] = test system: Haemophilus influenzae ATCC 49247; test: as above; assay type: cell-based; settings: ATCC49247; Haemophilus influenzae ATCC 49247; 16-20 h; mode of three independent experiments; read-out: MIC, Hi ATCC 49247
[7] = test system: Staphylococcus aureus ATCC 29213; test: as above; assay type: cell-based; settings: ATCC29213; Staphylococcus aureus ATCC 29213; 16-20 h; mode of three independent experiments; read-out: MIC, Sa ATCC 29213
[8] = test system: Escherichia coli ATCC 25922; test: as above; assay type: cell-based; settings: ATCC25922; Escherichia coli ATCC 25922; 16-20 h; mode of three independent experiments; read-out: MIC, Ec ATCC 25922
[9] = test system: Acinetobacter baumannii NCTC 13420; test: as above; assay type: cell-based; settings: NCTC13420; Acinetobacter baumannii NCTC 13420; 16-20 h; mode of three independent experiments; read-out: MIC, Ab NCTC 13420
E. coli ATCC BAA-2452 = test: as above; assay type: cell-based; settings: Escherichia coli ATCC BAA-2452; 16-20 h; mode of three independent experiments; read-out: MIC, Ec ATCC BAA 2452
E. coli MG1655 = test: as above; assay type: cell-based, Escherichia coli; settings: Escherichia coli, MG1655, read-out: MIC, Ec MG1655 WT
[10] = test system: Neisseria meningitidis ATCC 13090; test: as above; assay type: cell-based; settings: ATCC13090, 16-20 h, mode of three independent experiments
[11] = test system: Acinetobacter baumannii ATCC 19606; test: as above; assay type: cell-based; settings: ATCC19606; Acinetobacter baumannii ATCC 19606; 16-20 h; mode of three independent experiments; read-out: MIC, Ab ATCC 19606
E. coli MG1655 S83L = assay type: cell-based, Escherichia coli; settings: compared to the isogenic parent strain E. coli MG1655; S83L mutation on DNA gyrase subunit GyrA
E. coli MG1655 D87G = assay type: cell-based, Escherichia coli; settings: compared to the isogenic parent strain E. coli MG1655; D87G mutation on DNA gyrase subunit GyrA
E. coli NCTC 13476 = test: MIC, broth microdilution (CLSI) versus planktonic bacteria; assay type: cell-based; settings: NCTC13476; Escherichia coli NCTC 13476; 16-20 h; mode of three independent experiments; read-out: MIC, Ec NCTC 13476
[12] = test system: Enterococcus faecium ATCC 19434; test: as above; assay type: cell-based; settings: ATCC19434, 16-20 h, mode of three independent experiments, read-out: MIC, Efm ATCC 19434
[13] = test system: Enterococcus faecalis ATCC 29212; test: as above; assay type: cell-based; settings: ATCC29212, 16-20 h, mode of three independent experiments, read-out: MIC, Ef ATCC 29212
[14] = test system: fluoroquinolone-resistant Enterococcus faecium ATCC 700221; test: as above; assay type: cell-based; settings: ATCC700221, 16-20 h, mode of three independent experiments, read-out: MIC, Efm ATCC 700221

| Structure (SMILES) | MIC [1] [µg/mL] | IC50 [2] [µg/mL] | MIC [3] [µg/mL] | MIC [4] [µg/mL] | MIC [5] [µg/mL] | MIC [6] [µg/mL] | MIC [7] [µg/mL] | MIC [8] [µg/mL] | MIC [9] [µg/mL] | MIC (E. coli ATCC BAA-2452) [µg/mL] | MIC (E. coli MG1655) [µg/mL] | MIC [10] [µg/mL] | MIC [11] [µg/mL] | Fold increase in MIC, E. coli MG1655 S83L (E. coli MG1655 S83L) [fold] | Fold increase in MIC, E. coli MG1655 D87G (E. coli MG1655 D87G) [fold] | MIC (E. coli NCTC 13476) [µg/mL] | MIC [12] [µg/mL] | MIC [13] [µg/mL] | MIC [14] [µg/mL] |
| --- | --- | --- | --- | --- | --- | --- | --- | --- | --- | --- | --- | --- | --- | --- | --- | --- | --- | --- | --- |
| NCCCOc1ccc2ccc(=O)n(CCN[C@H]3CC[C@H]4[C@@H](C3)OC(=O)N4c3ccc4c(n3)NC(=O)CO4)c2n1 [Compound 5, 1-(2-{[(3aS,6S,7aR)-2-oxo-3-{3-oxo-2H,3H,4H-pyrido[3,2-b][1,4]oxazin-6-yl}-octahydro-1,3-benzoxazol-6-yl]amino}ethyl)-7-(3-aminopropoxy)-1,2-dihydro-1,8-naphthyridin-2-one] | 10 to 100 (≈ 18.2 to 182 µM) | > 100 | > 100 | 1 to 10 (≈ 1.82 to 18.2 µM) | 1 to 10 (≈ 1.82 to 18.2 µM) | > 100 | 1 to 10 (≈ 1.82 to 18.2 µM) | 10 to 100 (≈ 18.2 to 182 µM) | > 100 | – | – | – | – | – | – | – | – | – | – |
| O=C1COc2ccc(N3C(=O)O[C@@H]4C[C@@H](NCCn5c(=O)ccc6ccc(OCCO)nc65)CC[C@@H]43)nc2N1 [Compound 6, 1-(2-{[(3aS,6S,7aR)-2-oxo-3-{3-oxo-2H,3H,4H-pyrido[3,2-b][1,4]oxazin-6-yl}-octahydro-1,3-benzoxazol-6-yl]amino}ethyl)-7-(2-hydroxyethoxy)-1,2-dihydro-1,8-naphthyridin-2-one] | < 1 | > 100 | 10 to 100 (≈ 18.6 to 186 µM) | 1 to 10 (≈ 1.86 to 18.6 µM) | < 1 | 1 to 10 (≈ 1.86 to 18.6 µM) | 1 to 10 (≈ 1.86 to 18.6 µM) | 1 to 10 (≈ 1.86 to 18.6 µM) | 10 to 100 (≈ 18.6 to 186 µM) | – | – | – | – | – | – | – | – | – | – |
| NS(=O)(=O)c1ccc(Oc2ccc3ccc(=O)n(CCN[C@@H]4CC[C@@H]5[C@@H](C4)OC(=O)N5c4ccc5c(n4)NC(=O)CO5)c3n2)cc1 [Compound 8, 4-{[8-(2-{[(3aR,6R,7aR)-2-oxo-3-{3-oxo-2H,3H,4H-pyrido[3,2-b][1,4]oxazin-6-yl}-octahydro-1,3-benzoxazol-6-yl]amino}ethyl)-7-oxo-7,8-dihydro-1,8-naphthyridin-2-yl]oxy}benzene-1-sulphonamide] | 1 to 10 (≈ 1.54 to 15.4 µM) | 10 to 100 (≈ 15.4 to 154 µM) | 10 to 100 (≈ 15.4 to 154 µM) | 10 to 100 (≈ 15.4 to 154 µM) | < 1 | < 1 | < 1 | 1 to 10 (≈ 1.54 to 15.4 µM) | 10 to 100 (≈ 15.4 to 154 µM) | – | – | – | – | – | – | – | – | – | – |
| NCCOc1ccc2ccc(=O)n(CCN[C@H]3CC[C@H]4[C@@H](C3)OC(=O)N4c3ccc4c(n3)NC(=O)CO4)c2c1 [Compound 9, 1-(2-{[(3aS,6S,7aR)-2-oxo-3-{3-oxo-2H,3H,4H-pyrido[3,2-b][1,4]oxazin-6-yl}-octahydro-1,3-benzoxazol-6-yl]amino}ethyl)-7-(2-aminoethoxy)-1,2-dihydroquinolin-2-one] | 10 to 100 (≈ 18.7 to 187 µM) | > 100 | > 100 | 1 to 10 (≈ 1.87 to 18.7 µM) | > 100 | 10 to 100 (≈ 18.7 to 187 µM) | 1 to 10 (≈ 1.87 to 18.7 µM) | 1 to 10 (≈ 1.87 to 18.7 µM) | > 100 | – | – | – | – | – | – | – | – | – | – |
| NCCOc1ccc2ccc(=O)n(CCN[C@H]3CC[C@H]4[C@@H](C3)OC(=O)N4c3ccc4c(n3)NC(=O)CO4)c2n1 [Compound 10, 1-(2-{[(3aS,6S,7aR)-2-oxo-3-{3-oxo-2H,3H,4H-pyrido[3,2-b][1,4]oxazin-6-yl}-octahydro-1,3-benzoxazol-6-yl]amino}ethyl)-7-(2-aminoethoxy)-1,2-dihydro-1,8-naphthyridin-2-one] | 10 to 100 (≈ 18.7 to 187 µM) | > 100 | > 100 | 1 to 10 (≈ 1.87 to 18.7 µM) | > 100 | 10 to 100 (≈ 18.7 to 187 µM) | 10 to 100 (≈ 18.7 to 187 µM) | 1 to 10 (≈ 1.87 to 18.7 µM) | > 100 | – | – | – | – | – | – | – | – | – | – |
| N#Cc1cccc(-c2cccc(CN[C@H]3CC[C@H]4[C@@H](C3)OC(=O)N4c3ccc4c(n3)NC(=O)CO4)c2O)n1 [Compound 18, 6-[3-({[(3aS,6S,7aR)-2-oxo-3-{3-oxo-2H,3H,4H-pyrido[3,2-b][1,4]oxazin-6-yl}-octahydro-1,3-benzoxazol-6-yl]amino}methyl)-2-hydroxyphenyl]pyridine-2-carbonitrile] | < 1 | 1 to 10 (≈ 1.95 to 19.5 µM) | < 1 | 1 to 10 (≈ 1.95 to 19.5 µM) | – | 1 to 10 (≈ 1.95 to 19.5 µM) | < 1 | < 1 | < 1 | 1 to 10 (≈ 1.95 to 19.5 µM) | < 1 | < 1 | < 1 | 2 | 1 | 1 to 10 (≈ 1.95 to 19.5 µM) | – | – | – |
| N#Cc1ccc2ccc(=O)n(CCN(CCN)[C@H]3CC[C@H]4[C@@H](C3)OC(=O)N4c3ccc4c(n3)NC(=O)CO4)c2c1 [Compound 58, 1-(2-{[(3aS,6S,7aR)-2-oxo-3-{3-oxo-2H,3H,4H-pyrido[3,2-b][1,4]oxazin-6-yl}-octahydro-1,3-benzoxazol-6-yl](2-aminoethyl)amino}ethyl)-2-oxo-1,2-dihydroquinoline-7-carbonitrile] | > 100 | > 100 | > 100 | 1 to 10 (≈ 1.84 to 18.4 µM) | 1 to 10 (≈ 1.84 to 18.4 µM) | > 100 | < 1 | 10 to 100 (≈ 18.4 to 184 µM) | > 100 | – | – | – | – | – | – | – | – | – | – |
| COc1cccc(-c2cccc(CN[C@@H]3CC[C@@H]4[C@@H](C3)OC(=O)N4c3ccc4c(n3)NC(=O)CO4)c2)n1 [Compound 80, (3aR,6R,7aR)-6-({[3-(6-methoxypyridin-2-yl)phenyl]methyl}amino)-3-{3-oxo-2H,3H,4H-pyrido[3,2-b][1,4]oxazin-6-yl}-octahydro-1,3-benzoxazol-2-one] | 1 to 10 (≈ 1.99 to 19.9 µM) | 10 to 100 (≈ 19.9 to 199 µM) | 1 to 10 (≈ 1.99 to 19.9 µM) | 1 to 10 (≈ 1.99 to 19.9 µM) | – | < 1 | < 1 | < 1 | < 1 | < 1 | < 1 | – | < 1 | 1 | 1 | < 1 | 1 to 10 (≈ 1.99 to 19.9 µM) | < 1 | 1 to 10 (≈ 1.99 to 19.9 µM) |
| COc1cnc2ccc(=O)n(CCN[C@H]3CC[C@H]4[C@H](C3)OC(=O)N4c3ccc4c(n3)NC(=O)CS4)c2c1 [Compound 81, 1-(2-{[(3aS,6S,7aS)-2-oxo-3-{3-oxo-2H,3H,4H-pyrido[3,2-b][1,4]thiazin-6-yl}-octahydro-1,3-benzoxazol-6-yl]amino}ethyl)-7-methoxy-1,2-dihydro-1,5-naphthyridin-2-one] | < 1 | 10 to 100 (≈ 19.1 to 191 µM) | < 1 | 1 to 10 (≈ 1.91 to 19.1 µM) | – | < 1 | < 1 | < 1 | < 1 | < 1 | < 1 | – | < 1 | 1 | 1 | < 1 | < 1 | < 1 | < 1 |
| CCCOc1ccc2ccc(=O)n(CCN[C@H]3CC[C@H]4[C@H](C3)OC(=O)N4c3ccc4c(n3)NC(=O)CO4)c2c1 [Compound 91, 1-(2-{[(3aS,6S,7aS)-2-oxo-3-{3-oxo-2H,3H,4H-pyrido[3,2-b][1,4]oxazin-6-yl}-octahydro-1,3-benzoxazol-6-yl]amino}ethyl)-7-propoxy-1,2-dihydroquinolin-2-one] | < 1 | 10 to 100 (≈ 18.7 to 187 µM) | 1 to 10 (≈ 1.87 to 18.7 µM) | 10 to 100 (≈ 18.7 to 187 µM) | – | < 1 | < 1 | < 1 | < 1 | < 1 | < 1 | – | < 1 | 0.5 | 1 | 1 to 10 (≈ 1.87 to 18.7 µM) | 1 to 10 (≈ 1.87 to 18.7 µM) | 1 to 10 (≈ 1.87 to 18.7 µM) | 1 to 10 (≈ 1.87 to 18.7 µM) |
